According to article PMC6199744, “Development of Chemical Proteomics for the Folateome and Analysis of the Kinetoplastid Folateome” (ACS Infectious Diseases, 2018):
Read-outs that look alike come from different tables or passages of the source.

Legend:
Format in all cases: binding
[1] = molecular target: T1, HeLa cell extract proteins (Homo sapiens, UniProt A5YKK6)
T1 construct: endogenous in cells; host or cells: HeLa cell extract

[2] = molecular target: T2, HeLa cell extract proteins (Homo sapiens, UniProt P13798)
T2 construct: endogenous in cells; host or cells: HeLa cell extract
T2 sequence (P13798 1-732): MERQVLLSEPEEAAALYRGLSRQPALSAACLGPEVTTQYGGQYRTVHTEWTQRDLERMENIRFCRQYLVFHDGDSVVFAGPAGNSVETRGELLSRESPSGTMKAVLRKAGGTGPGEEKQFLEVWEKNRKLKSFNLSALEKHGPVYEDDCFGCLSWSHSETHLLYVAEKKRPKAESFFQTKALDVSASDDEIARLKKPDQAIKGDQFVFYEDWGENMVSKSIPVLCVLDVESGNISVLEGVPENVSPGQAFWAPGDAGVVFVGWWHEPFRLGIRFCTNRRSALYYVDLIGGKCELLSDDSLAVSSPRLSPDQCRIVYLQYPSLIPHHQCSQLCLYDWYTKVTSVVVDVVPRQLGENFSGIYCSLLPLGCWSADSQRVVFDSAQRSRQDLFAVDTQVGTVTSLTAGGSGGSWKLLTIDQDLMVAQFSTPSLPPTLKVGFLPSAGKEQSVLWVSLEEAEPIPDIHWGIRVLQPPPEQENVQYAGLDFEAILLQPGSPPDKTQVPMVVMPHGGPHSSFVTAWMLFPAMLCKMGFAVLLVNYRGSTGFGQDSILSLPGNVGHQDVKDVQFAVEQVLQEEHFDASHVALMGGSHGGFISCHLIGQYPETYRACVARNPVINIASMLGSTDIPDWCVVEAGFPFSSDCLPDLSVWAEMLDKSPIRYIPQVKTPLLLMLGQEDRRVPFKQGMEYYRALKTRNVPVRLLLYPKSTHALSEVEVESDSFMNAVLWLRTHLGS

[3] = molecular target: T3, HeLa cell extract proteins (Homo sapiens, UniProt P20618)
T3 construct: endogenous in cells; host or cells: HeLa cell extract
T3 sequence (P20618 29-241): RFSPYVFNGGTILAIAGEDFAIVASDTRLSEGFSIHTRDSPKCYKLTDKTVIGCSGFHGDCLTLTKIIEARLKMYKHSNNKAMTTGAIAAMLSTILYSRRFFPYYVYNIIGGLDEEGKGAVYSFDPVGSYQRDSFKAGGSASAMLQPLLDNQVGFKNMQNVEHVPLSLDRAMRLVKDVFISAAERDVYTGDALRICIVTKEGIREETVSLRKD

[4] = molecular target: T4, HeLa cell extract proteins (Homo sapiens, UniProt P35573)
T4 construct: endogenous in cells; host or cells: HeLa cell extract

[5] = molecular target: T5, HeLa cell extract proteins (Homo sapiens, UniProt P43686)
T5 construct: endogenous in cells; host or cells: HeLa cell extract

[6] = molecular target: T6, HeLa cell extract proteins (Homo sapiens, UniProt P48651)
T6 construct: endogenous in cells; host or cells: HeLa cell extract

[7] = molecular target: T7, HeLa cell extract proteins (Homo sapiens, UniProt Q9Y573)
T7 construct: endogenous in cells; host or cells: HeLa cell extract
T7 sequence (Q9Y573 1-584): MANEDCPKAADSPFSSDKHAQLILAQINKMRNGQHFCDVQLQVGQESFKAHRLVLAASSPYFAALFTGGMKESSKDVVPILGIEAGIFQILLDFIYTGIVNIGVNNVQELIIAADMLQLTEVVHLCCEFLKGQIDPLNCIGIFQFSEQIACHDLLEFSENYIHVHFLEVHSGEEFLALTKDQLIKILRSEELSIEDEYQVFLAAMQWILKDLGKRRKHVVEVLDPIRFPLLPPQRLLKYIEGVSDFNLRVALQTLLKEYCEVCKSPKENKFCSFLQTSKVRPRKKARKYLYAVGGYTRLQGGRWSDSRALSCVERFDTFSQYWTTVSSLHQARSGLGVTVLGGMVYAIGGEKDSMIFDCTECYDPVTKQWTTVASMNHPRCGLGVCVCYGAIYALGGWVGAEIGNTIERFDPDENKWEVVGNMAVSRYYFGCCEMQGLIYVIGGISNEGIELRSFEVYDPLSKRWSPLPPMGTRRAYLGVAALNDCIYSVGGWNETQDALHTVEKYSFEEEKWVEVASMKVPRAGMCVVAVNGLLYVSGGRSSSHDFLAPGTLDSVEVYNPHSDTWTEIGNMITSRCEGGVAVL

[8] = HeLa, protein APEH (ACYLAMINO-ACID-RELEASING ENZYME)
[9] = HeLa, protein AGL (PUTATIVE UNCHA[…] AGL (FRAGMENT))
[10] = HeLa, protein IPP (ACTIN-BINDING PROTEIN IPP)

T4 sequence (P35573 whole entry): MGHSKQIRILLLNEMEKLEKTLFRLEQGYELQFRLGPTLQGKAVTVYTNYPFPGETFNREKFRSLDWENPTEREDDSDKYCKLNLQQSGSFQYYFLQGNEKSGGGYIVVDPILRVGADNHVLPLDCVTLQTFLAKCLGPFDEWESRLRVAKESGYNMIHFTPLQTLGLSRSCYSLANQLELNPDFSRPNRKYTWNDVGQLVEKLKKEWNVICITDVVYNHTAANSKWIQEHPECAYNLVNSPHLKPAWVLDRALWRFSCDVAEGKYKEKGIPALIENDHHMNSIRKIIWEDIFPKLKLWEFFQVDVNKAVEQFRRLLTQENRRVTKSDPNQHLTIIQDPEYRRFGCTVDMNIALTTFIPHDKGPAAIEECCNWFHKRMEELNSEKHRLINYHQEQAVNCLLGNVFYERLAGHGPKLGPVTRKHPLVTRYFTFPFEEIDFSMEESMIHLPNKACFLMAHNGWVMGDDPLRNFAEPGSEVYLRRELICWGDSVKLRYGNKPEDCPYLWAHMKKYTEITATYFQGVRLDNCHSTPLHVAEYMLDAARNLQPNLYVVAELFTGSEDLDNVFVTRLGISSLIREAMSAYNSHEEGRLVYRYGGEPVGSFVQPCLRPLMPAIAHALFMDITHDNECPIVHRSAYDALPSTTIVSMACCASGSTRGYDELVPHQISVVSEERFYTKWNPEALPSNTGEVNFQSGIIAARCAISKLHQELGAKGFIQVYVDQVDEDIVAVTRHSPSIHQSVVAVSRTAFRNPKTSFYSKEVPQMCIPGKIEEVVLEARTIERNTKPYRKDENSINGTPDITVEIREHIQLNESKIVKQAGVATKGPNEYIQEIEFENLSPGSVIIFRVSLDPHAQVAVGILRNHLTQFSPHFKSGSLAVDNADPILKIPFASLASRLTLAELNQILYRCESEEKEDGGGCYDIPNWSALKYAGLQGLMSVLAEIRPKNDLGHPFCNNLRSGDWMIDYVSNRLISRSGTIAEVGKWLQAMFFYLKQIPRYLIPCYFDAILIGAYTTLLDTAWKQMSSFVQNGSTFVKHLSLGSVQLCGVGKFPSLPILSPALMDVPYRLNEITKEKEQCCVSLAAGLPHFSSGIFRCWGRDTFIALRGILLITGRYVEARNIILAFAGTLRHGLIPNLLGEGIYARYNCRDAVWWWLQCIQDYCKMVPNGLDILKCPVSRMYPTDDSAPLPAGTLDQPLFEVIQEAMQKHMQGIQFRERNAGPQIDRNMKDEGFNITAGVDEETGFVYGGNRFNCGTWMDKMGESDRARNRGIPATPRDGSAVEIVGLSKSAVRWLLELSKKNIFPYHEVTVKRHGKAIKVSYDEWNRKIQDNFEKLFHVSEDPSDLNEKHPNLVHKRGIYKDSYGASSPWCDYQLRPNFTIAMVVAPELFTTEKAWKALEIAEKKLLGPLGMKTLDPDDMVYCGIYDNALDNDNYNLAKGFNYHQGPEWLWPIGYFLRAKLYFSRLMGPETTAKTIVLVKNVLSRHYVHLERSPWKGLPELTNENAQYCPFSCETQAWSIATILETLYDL
T1 sequence (A5YKK6 whole entry): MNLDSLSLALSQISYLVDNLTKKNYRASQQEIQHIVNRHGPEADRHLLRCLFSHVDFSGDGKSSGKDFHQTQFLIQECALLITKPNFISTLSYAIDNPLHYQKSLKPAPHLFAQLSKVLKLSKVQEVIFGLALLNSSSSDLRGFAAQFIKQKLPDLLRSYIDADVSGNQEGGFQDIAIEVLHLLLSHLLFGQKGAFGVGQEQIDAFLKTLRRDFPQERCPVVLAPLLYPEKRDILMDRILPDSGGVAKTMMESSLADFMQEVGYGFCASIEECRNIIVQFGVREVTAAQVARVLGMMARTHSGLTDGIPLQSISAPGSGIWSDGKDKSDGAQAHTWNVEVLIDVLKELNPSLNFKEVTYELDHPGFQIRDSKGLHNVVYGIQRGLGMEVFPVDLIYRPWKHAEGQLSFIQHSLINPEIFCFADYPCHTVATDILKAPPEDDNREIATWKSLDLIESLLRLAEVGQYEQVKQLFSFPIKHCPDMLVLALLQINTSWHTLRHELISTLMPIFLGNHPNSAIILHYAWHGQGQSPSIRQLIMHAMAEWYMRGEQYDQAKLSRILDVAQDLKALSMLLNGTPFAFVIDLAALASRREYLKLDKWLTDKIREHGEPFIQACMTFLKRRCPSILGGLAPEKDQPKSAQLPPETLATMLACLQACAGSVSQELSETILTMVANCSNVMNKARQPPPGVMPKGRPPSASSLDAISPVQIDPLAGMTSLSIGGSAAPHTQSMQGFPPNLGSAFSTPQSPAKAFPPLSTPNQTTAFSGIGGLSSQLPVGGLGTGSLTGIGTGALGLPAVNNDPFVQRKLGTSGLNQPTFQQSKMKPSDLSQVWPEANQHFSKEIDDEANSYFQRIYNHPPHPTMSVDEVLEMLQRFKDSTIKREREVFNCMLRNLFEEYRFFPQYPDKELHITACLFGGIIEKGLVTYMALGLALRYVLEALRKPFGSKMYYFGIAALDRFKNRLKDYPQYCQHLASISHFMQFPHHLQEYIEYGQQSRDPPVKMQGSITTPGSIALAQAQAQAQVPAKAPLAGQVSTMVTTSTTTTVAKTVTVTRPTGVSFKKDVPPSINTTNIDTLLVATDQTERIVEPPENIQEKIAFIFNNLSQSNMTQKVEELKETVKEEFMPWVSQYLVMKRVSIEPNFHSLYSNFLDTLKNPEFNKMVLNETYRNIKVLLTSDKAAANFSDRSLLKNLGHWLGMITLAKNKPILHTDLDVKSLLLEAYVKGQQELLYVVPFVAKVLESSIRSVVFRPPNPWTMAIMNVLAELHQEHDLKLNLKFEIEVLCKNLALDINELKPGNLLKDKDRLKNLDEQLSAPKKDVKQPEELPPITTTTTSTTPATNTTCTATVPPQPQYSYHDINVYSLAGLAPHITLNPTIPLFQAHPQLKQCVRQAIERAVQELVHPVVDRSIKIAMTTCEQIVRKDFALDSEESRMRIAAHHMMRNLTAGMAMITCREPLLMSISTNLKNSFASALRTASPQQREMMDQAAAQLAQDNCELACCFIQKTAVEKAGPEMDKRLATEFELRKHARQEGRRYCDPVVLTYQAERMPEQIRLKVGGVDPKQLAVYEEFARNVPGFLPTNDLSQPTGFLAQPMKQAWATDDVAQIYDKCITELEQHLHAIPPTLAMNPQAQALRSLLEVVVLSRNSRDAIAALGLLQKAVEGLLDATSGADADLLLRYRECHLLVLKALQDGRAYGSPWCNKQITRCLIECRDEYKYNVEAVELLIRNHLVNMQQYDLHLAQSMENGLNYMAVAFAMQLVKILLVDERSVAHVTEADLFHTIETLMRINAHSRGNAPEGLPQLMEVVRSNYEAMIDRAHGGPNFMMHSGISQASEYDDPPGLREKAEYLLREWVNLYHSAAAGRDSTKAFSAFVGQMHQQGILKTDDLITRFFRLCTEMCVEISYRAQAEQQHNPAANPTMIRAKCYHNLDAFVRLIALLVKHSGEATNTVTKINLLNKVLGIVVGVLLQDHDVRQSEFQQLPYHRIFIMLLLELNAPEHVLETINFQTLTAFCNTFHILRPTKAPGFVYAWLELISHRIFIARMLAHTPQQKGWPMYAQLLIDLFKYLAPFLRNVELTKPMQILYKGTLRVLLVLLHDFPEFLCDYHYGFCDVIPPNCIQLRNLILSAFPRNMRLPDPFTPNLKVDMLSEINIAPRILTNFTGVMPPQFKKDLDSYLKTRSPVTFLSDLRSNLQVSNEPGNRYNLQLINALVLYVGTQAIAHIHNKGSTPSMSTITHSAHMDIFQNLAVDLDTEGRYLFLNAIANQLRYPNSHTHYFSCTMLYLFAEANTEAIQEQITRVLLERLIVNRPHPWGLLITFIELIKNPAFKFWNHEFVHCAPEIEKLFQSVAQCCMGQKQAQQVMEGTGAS
T5 sequence (P43686 whole entry): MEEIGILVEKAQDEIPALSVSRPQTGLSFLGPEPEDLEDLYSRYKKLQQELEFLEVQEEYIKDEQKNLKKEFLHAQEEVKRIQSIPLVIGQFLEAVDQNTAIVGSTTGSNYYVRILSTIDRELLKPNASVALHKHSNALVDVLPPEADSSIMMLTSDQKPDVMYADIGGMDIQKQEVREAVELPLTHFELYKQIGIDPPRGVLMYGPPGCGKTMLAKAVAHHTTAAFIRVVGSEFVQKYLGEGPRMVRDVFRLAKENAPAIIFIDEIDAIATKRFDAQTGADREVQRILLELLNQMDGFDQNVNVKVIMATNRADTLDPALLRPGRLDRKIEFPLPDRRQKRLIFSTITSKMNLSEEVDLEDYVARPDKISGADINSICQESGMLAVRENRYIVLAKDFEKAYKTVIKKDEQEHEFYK

| SMILES | fold changes relative to vehicle control ([1]; protein CNOT1, HeLa) | fold changes relative to vehicle control ([2]; HeLa, protein APEH) | fold changes relative to vehicle control ([3]; protein PSMB1, HeLa) | fold changes relative to vehicle control ([4]; HeLa, protein AGL) | fold changes relative to vehicle control ([5]; protein PSMC4, HeLa) | fold changes relative to vehicle control ([6]; captured protein PTDSS1, HeLa) | fold changes relative to vehicle control ([7]; protein IPP, HeLa) | fold changes relative to vehicle control ([1]; HeLa, captured protein CNOT1) | fold changes relative to vehicle control [2, 8] | fold changes relative to vehicle control ([3]; HeLa, protein PSMB1) | fold changes relative to vehicle control [4, 9] | fold changes relative to vehicle control ([6]; HeLa, protein PTDSS1) | fold changes relative to vehicle control [7, 10] | fold changes relative to vehicle control [1] | fold changes relative to vehicle control [2] | fold changes relative to vehicle control [3] | fold changes relative to vehicle control [4] | fold changes relative to vehicle control [5] | fold changes relative to vehicle control [6] | fold changes relative to vehicle control [7] |
| --- | --- | --- | --- | --- | --- | --- | --- | --- | --- | --- | --- | --- | --- | --- | --- | --- | --- | --- | --- | --- |
| Nc1nc2cccc(-c3ccccc3)c2n1Cc1ccc(Cl)c(Cl)c1 [compound 3] | 1.37 | 1.01 | 0.92 | 1.13 | 1.04 | 0.77 | 0.93 | – | – | – | – | – | – | – | – | – | – | – | – | – |
| CCCCCCOc1ccc(Cc2cnc(N)nc2N)cc1 [compound 1] | 1.3 | 0.96 | 1.05 | 1.05 | 1.13 | 0.68 | 1.03 | – | – | – | – | – | – | – | – | – | – | – | – | – |
| NCCCNc1ccc(C(=O)NC(CCC(=O)O)C(=O)O)cc1 (stereo not shown) [compound 7] | – | – | – | – | 0.98 | – | – | 1.16 | 1 | 0.86 | 1.17 | 0.96 | 0.9 | – | – | – | – | – | – | – |
| CCCCCCOc1cccc(Cc2cnc(N)nc2N)c1 [compound 2] | 1.32 | 0.91 | 1.28 | 1.08 | 1.33 | 1.03 | 1.05 | – | – | – | – | – | – | – | – | – | – | – | – | – |
| NCCOCCOCC(=O)Nc1nc2ncc(CNc3ccc(C(=O)NC(CCC(=O)O)C(=O)O)cc3)nc2c(=O)[nH]1 (stereo not shown) [compound 6] | – | – | – | – | 1.13 | – | – | 1.17 | 0.91 | 0.94 | 1.09 | 0.89 | 0.89 | – | – | – | – | – | – | – |
| Nc1nc2[nH]cc(CCc3ccc(C(=O)N[C@@H](CCC(=O)O)C(=O)O)cc3)c2c(=O)[nH]1 [PTX, pemetrexed] | – | – | – | – | – | – | – | – | – | – | – | – | – | 1 | 0.96 | 0.78 | 1.1 | 1.01 | 0.8 | 0.92 |
| Nc1nc2c(c(=O)[nH]1)N(C=O)C(CNc1ccc(C(=O)N[C@@H](CCC(=O)O)C(=O)O)cc1)CN2 (stereo partly shown) [LEU, leucovorin] | – | – | – | – | 0.97 | – | – | 0.93 | 1.08 | 0.96 | 1.19 | 0.84 | 0.99 | – | – | – | – | – | – | – |
